These results are taken from patent publication US11884647B2, “Compounds and methods for targeting pathogenic blood vessels” (THE REGENTS OF THE UNIVERSITY OF CALIFORNIA, priority 2019, dated 2024).

The test system of the first experiment is tumor endothelial cells (LL/2 lung cancer tumor). Briefly: Lung LL2 ex vivo model of tumor angiogenesis. It counts as cell-based, mouse. Conditions: Lung LL2 ex vivo; Conc. 20 μm; drug treatment two days. In short, it runs like this: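 Read-out is live/dead fluorescence imaging (fluorescein diacetate green, propidium iodide red, 10 min at 37° C) at 2×, taken e.g. 48 h after drug addition. Fragments of mouse LL2 tumor are cultured in Matrigel with endothelial growth medium, usually 4 days, until new endothelial cells grow out, then treated.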
Consider `CCCCCCCOc1ccc(S(=O)(=O)c2cnc3ccc(SC)cc3c2N2CCN(C3CCN(C)CC3)CC2)cc1` [compound 273, 3-((4-(heptyloxy)phenyl)sulfonyl)-4-(4-(1-methylpiperidin-4-yl)piperazin-1-yl)-6-(methylthio)quinoline], for which the Cell death was 60%.

The same experiment, now with this note: Mus musculus, Endothelial cell, 48 h, read-out: Cell death.
As to `CCCCCCCOc1ccc(S(=O)(=O)c2cnc3ccc(SC)cc3c2N2CCC(N3CCCN(C)CC3)CC2)cc1` [compound 249, 3-((4-(heptyloxy)phenyl)sulfonyl)-4-(4-(4-methyl-1,4-diazepan-1-yl)piperidin-1-yl)-6-(methylthio)quinoline], the cytotoxicity at 20 µM came to 60%. Still for that read-out and setting: with `CCCCCCCOc1ccc(S(=O)(=O)c2cnc3ccc(SC)cc3c2N2CCC(N3CCN(CCO)CC3)CC2)cc1` [compound 250, 2-(4-(1-(3-((4-(heptyloxy)phenyl)sulfonyl)-6-(methylthio)quinolin-4-yl)piperidin-4-yl)piperazin-1-yl)ethan-1-ol] the figure was 90%. Same read-out and setting: with `CCCCCCCOc1ccc(S(=O)(=O)c2cnc3ccc(SC)cc3c2N2CCC(N3CCC(N4CCCCC4)CC3)CC2)cc1` [compound 251, 4-([1,4′:1′,4″-terpiperidin]-1″-yl)-3-((4-(heptyloxy)phenyl)sulfonyl)-6-(methylthio)quinoline] the figure was 60%. Turning to `CCCCCCCOc1ccc(S(=O)(=O)c2cnc3ccc(SC)cc3c2N2CCC(N3CCC(O)(c4ccccc4)CC3)CC2)cc1` [compound 262, 1′-(3-((4-(heptyloxy)phenyl)sulfonyl)-6-(methylthio)quinolin-4-yl)-4-phenyl-[1,4′-bipiperidin]-4-ol], the cytotoxicity at 10 µM is 20%.

`CCCCCCCOc1ccc(S(=O)(=O)c2cnc3ccc([S+](C)[O-])cc3c2N2CCC(N3CCC(O)(c4ccccc4)CC3)CC2)cc1` (stereo not drawn) [compound 263, 1′-(3-((4-(heptyloxy)phenyl)sulfonyl)-6-(methylsulfinyl)quinolin-4-yl)-4-phenyl-[1,4′-bipiperidin]-4-ol]: the cytotoxicity at 10 µM amounted to 100%. Same read-out and setting: as for `CCCCCCCCCCOc1ccc(S(=O)(=O)c2cnc3ccc([S+](C)[O-])cc3c2N2CCC(N3CCN(C)CC3)CC2)cc1` (stereo not drawn) [compound 264, 3-((4-(decyloxy)phenyl)sulfonyl)-4-(4-(4-methylpiperazin-1-yl)piperidin-1-yl)-6-(methylsulfinyl)quinoline], the figure is 20%; as for `CCCCCCCCCCOc1ccc(S(=O)(=O)c2cnc3ccc([S+](C)[O-])cc3c2N2CCC(N3CCCC(O)C3)CC2)cc1` (stereo not drawn) [compound 265, 1′-(3-((4-(decyloxy)phenyl)sulfonyl)-6-(methylsulfinyl)quinolin-4-yl)-[1,4′-bipiperidin]-3-ol], 20%; as for `CCCCCCCCCCOc1ccc(S(=O)(=O)c2cnc3ccc([S+](C)[O-])cc3c2N2CCCN(CCN3CCCCC3)CC2)cc1` (stereo not drawn) [compound 266, 3-((4-(decyloxy)phenyl)sulfonyl)-6-(methylsulfinyl)-4-(4-(2-(piperidin-1-yl)ethyl)-1,4-diazepan-1-yl)quinoline], 5%. The same measure, in the same setting: with `CCCCCCCCCCOc1ccc(S(=O)(=O)c2cnc3ccc([S+](C)[O-])cc3c2N2CCC(N3CCCN(C)CC3)CC2)cc1` (stereo not drawn) [compound 267, 3-((4-(decyloxy)phenyl)sulfonyl)-4-(4-(4-methyl-1,4-diazepan-1-yl)piperidin-1-yl)-6-(methylsulfinyl)quinoline] the figure was 5%. As for `CCCCCCCCCCOc1ccc(S(=O)(=O)c2cnc3ccc([S+](C)[O-])cc3c2N2CCC(N3CCN(CCO)CC3)CC2)cc1` (stereo not drawn) [compound 268, 2-(4-(1-(3-((4-(decyloxy)phenyl)sulfonyl)-6-(methylsulfinyl)quinolin-4-yl)piperidin-4-yl)piperazin-1-yl)ethan-1-ol], the cytotoxicity at 20 µM amounted to 50%.

Turning to `CCCCCCCCCCOc1ccc(S(=O)(=O)c2cnc3ccc([S+](C)[O-])cc3c2N2CCC(N3CCC(N4CCCCC4)CC3)CC2)cc1` (stereo not drawn) [compound 269, 4-([1,4′:1′,4″-terpiperidin]-1″-yl)-3-((4-(decyloxy)phenyl)sulfonyl)-6-(methylsulfinyl)quinoline], the cytotoxicity at 20 µM turned out to be 100%.

Consider `CCCCCCCCCCOc1ccc(S(=O)(=O)c2cnc3ccc([S+](C)[O-])cc3c2N2CCC(N3CCC(O)(c4ccccc4)CC3)CC2)cc1` (stereo not drawn) [compound 270, 1′-(3-((4-(decyloxy)phenyl)sulfonyl)-6-(methylsulfinyl)quinolin-4-yl)-4-phenyl-[1,4′-bipiperidin]-4-ol], for which the cytotoxicity at 20 µM was determined as 50%.

Consider `CCCCCCCOc1ccc(S(=O)(=O)c2cnc3ccc(SC)cc3c2N2CCN(CCN3CCCC3)CC2)cc1` [compound 272, 3-((4-(heptyloxy)phenyl)sulfonyl)-6-(methylthio)-4-(4-(2-(pyrrolidin-1-yl)ethyl)piperazin-1-yl)quinoline], for which the cytotoxicity at 20 µM worked out at 20%. On the same count and under the same terms, with `CCCCCCCOc1ccc(S(=O)(=O)c2cnc3ccc(SC)cc3c2N2CCN(C3CCN(Cc4ccccc4)C3)CC2)cc1` (stereo not drawn) [compound 274, 4-(4-(1-benzylpyrrolidin-3-yl)piperazin-1-yl)-3-((4-(heptyloxy)phenyl)sulfonyl)-6-(methylthio)quinoline] the figure was 10%; with `CCCCCCCOc1ccc(S(=O)(=O)c2cnc3ccc(SC)cc3c2N2CCN(CC3CCN(Cc4ccccc4)CC3)CC2)cc1` [compound 275, 4-(4-((1-benzylpiperidin-4-yl)methyl)piperazin-1-yl)-3-((4-(heptyloxy)phenyl)sulfonyl)-6-(methylthio)quinoline], 5%.

`CCCCCCCOc1ccc(S(=O)(=O)c2cnc3ccc([S+](C)[O-])cc3c2N2CCN(CCN3CCCC3)CC2)cc1` (stereo not drawn) [compound 276, 3-((4-(heptyloxy)phenyl)sulfonyl)-6-(methylsulfinyl)-4-(4-(2-(pyrrolidin-1-yl)ethyl)piperazin-1-yl)quinoline]: the cytotoxicity at 20 µM stood at 100%. On to `CCCCCCCOc1ccc(S(=O)(=O)c2cnc3ccc([S+](C)[O-])cc3c2N2CCN(C3CCN(Cc4ccccc4)C3)CC2)cc1` (stereo not drawn) [compound 278, 4-(4-(1-benzylpyrrolidin-3-yl)piperazin-1-yl)-3-((4-(heptyloxy)phenyl)sulfonyl)-6-(methylsulfinyl)quinoline], for which the cytotoxicity at 10 µM is 50%. Consider `CCCCCCCOc1ccc(S(=O)(=O)c2cnc3ccc([S+](C)[O-])cc3c2N2CCN(CC3CCN(Cc4ccccc4)CC3)CC2)cc1` (stereo not drawn) [compound 279, 4-(4-((1-benzylpiperidin-4-yl)methyl)piperazin-1-yl)-3-((4-(heptyloxy)phenyl)sulfonyl)-6-(methylsulfinyl)quinoline], for which the cytotoxicity at 20 µM came out at 100%. The same measure, in the same setting: with `CCCCCCCOc1ccc(S(=O)(=O)c2cnc3ccc(SC)cc3c2N2CCN(CCN3CCCCC3)CC2)cc1` [compound 281, 3-((4-(heptyloxy)phenyl)sulfonyl)-6-(methylthio)-4-(4-(2-(piperidin-1-yl)ethyl)piperazin-1-yl)quinoline] the figure was 50%. As for `CCCCCCCOc1ccc(S(=O)(=O)c2cnc3ccc([S+](C)[O-])cc3c2N2CCN(CCN3CCCCC3)CC2)cc1` (stereo not drawn) [compound 282, 3-((4-(heptyloxy)phenyl)sulfonyl)-6-(methylsulfinyl)-4-(4-(2-(piperidin-1-yl)ethyl)piperazin-1-yl)quinoline], the cytotoxicity at 10 µM was determined as 10%.
